These results are taken from patent US7452870B2, “Drug-eluting stents coated with P2Y12 receptor antagonist compound” (Inspire Pharmaceuticals, Inc., priority 2000, dated 2008).

Where a name gives a salt, the structure may show the parent alone.

A short description of data set [1]: Plasma levels of test compound during and after IV infusion in dogs (LC/MS/MS). It is filed as in vivo. Particulars: both sexes, beagle, dog, after the end of infusion, one-compartment model analysis, FIG. 5B. As to the method:
(§1) Two weeks prior to the study, beagle dogs were implanted with jugular catheters and vascular access ports. Groups of four dogs (two of each sex) were fitted with jackets and connected to ambulatory infusion pumps for drug administration.
(§2) The day of the study, dogs were treated with a continuous infusion of different concentrations of test compound (usually between 0.1 and 1.5 mg/kg/h) for 90 minutes at a rate of 3 mL/kg/h. Approximately 30 minutes and 15 minutes prior to the start of infusion (predose samples), at different times during each infusion period (usually 10, 30, 60, and 90 minutes), and after the termination of the infusion (usually 5, 10, 20, 30, 40, 60, 120, and 240 minutes and 18, 20, 22, and 24 hours), blood was withdrawn from a cephalic vein catheter for the assessment of ex-vivo whole blood platelet aggregation assays and/or for bioanalytical determination of the plasma levels of the test compound. Platelet aggregation was estimated using the impedance mode of a CHRONOLOG® aggregometer as described in Example 24, and the plasma levels of the test compound were analyzed on an API 4000 LC/MS/MS system coupled with an Agilent 1100 series liquid chromatograph.
The pharmacological effect of the administration of the test compound correlated closely with the plasma levels of the compound. […]

Data set [2] deals with P2Y6 (Homo sapiens, UniProt Q15077). Put plainly: Calcium mobilization assay, P2Y6.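 Also: test compound added first then a maximal dose of the cognate agonist.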 It is filed as cell-based. On the set-up: key: no response (NR). Particulars: activation of P2Y6 receptor. (Calcium assays in cells follow changes in intracellular calcium, usually with a dye or a luminescent sensor.)
P2Y6, sequence (Q15077 whole entry, species assumed, the tested form may be a part): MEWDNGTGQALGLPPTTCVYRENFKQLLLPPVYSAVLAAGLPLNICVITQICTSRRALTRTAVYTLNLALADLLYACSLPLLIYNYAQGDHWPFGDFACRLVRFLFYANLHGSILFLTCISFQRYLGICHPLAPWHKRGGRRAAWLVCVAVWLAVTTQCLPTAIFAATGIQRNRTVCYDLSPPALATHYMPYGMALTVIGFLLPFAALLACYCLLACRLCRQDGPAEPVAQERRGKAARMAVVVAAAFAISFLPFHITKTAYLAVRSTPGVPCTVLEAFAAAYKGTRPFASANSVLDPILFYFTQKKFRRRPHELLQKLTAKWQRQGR
For data set [3], the system named is whole blood platelet aggregation. Kind of data set: Ex-vivo whole blood platelet aggregation during and after continuous IV infusion in dogs. On the set-up: species or system beagle dogs. As to the method: as §1, §2
The target of data set [4] is P2Y4 (Homo sapiens, UniProt P51582). Put plainly: Calcium mobilization assay, P2Y4.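 Also: test compound added first then a maximal dose of the cognate agonist.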 The format is cell-based. On the set-up: key: no response (NR). Particulars: activation of P2Y4 receptor.
P2Y4, sequence (P51582 whole entry, species assumed): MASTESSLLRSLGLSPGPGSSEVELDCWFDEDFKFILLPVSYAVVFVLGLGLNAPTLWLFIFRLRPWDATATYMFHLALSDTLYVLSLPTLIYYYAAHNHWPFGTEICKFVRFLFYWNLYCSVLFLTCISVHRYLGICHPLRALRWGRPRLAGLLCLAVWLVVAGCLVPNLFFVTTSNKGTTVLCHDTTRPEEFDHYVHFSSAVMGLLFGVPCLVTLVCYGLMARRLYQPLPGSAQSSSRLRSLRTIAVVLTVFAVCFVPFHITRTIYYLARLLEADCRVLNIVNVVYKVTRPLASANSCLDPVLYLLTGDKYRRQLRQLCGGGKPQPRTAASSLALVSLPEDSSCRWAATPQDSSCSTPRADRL
Data set [5] has as its target P2Y1 (Homo sapiens, UniProt P47900). Kind of data set: Calcium mobilization assay, P2Y1.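 Also: test compound added first then a maximal dose of the cognate agonist.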 It is filed as cell-based. On the set-up: key: no response (NR). Particulars: activation of P2Y1 receptor.
Data set [6] deals with washed platelet (ADP-induced aggregation; P2Y12 receptor). Kind of data set: ADP-induced platelet aggregation, washed platelet preparation. Particulars: Homo sapiens, inhibition of ADP-induced aggregation, washed platelets, average of at least two separate experiments. The format is cell-based. The procedure:
Blood was collected from healthy volunteers into syringes containing ⅙ final blood volume of anti-coagulant ACD (65 mM citric acid, 85 mM sodium citrate, 110 mM dextrose) for washed platelet (WP) preparation or into a syringe containing a final concentration of 10 units/mL heparin or 300 μM PPACK for whole blood (WB) assays. The blood collected for whole blood assays was maintained at room temperature and immediately tested as described below. […] These centrifugations and washes were repeated twice following by resuspension in the media described above containing 0.25 U apyrase/mL. Platelet aggregation was measured using the optical mode of a CHRONOLOG® aggregometer (Havertown, Pa.). Five hundred μl of platelet suspension containing 1 mg/mL Fibrinogen were warmed to 37° C. and stirred at 1000 rpm. Indicated concentrations of ADP were added to the sample and aggregation was monitored for 8 minutes. […] For whole blood aggregation, blood was diluted 1:1 with saline and then aggregation was performed in the same manner as described above using the impedance mode of the aggregometer. The potency of agonists and inhibitors of platelet aggregation was calculated from both, the rate of aggregation and the maximal extent of aggregation obtained for each determination by fitting the data to a four-parameter logistic equation using the […]® software package (GraphPad Corp. San Diego, Calif.).
The ability of P2Y12 antagonists to inhibit platelet aggregation is presented in this application as the percent inhibition of the aggregation induced by a maximally effective concentration of ADP.
Data presented are from the average of at least two separate experiments.

Data set [7] relates to systemic intravascular thromboembolism. Kind of data set: Thromboembolism-induced mortality (collagen and epinephrine) in mice. Particulars: 25 mg/kg single IV bolus five minutes before 0.3 mg/kg collagen and 60 μg/kg epinephrine. The format is in vivo. The procedure:
Ten anesthetized mice were treated with vehicle (control) or with a single bolus intravenous administration of test compound (usually between 10 and 25 mg/kg). Five minutes after treatment, the animals were injected with a mixture of 0.3 mg/kg collagen and 60 μg/kg epinephrine. The survival time after the administration of collagen and epinephrine in animals pretreated with saline or 25 mg/kg of the test compound 2′3′-(trans)cinnamyl acetal-6-N-ethylurea AMP (compound 41), are shown using the Kaplan-Meier plot in FIG. 3. Ninety percent of the vehicle-pretreated animals died within 6 minutes after the IV injection of collagen and epinephrine.

Data set [8] addresses P2Y2 (Homo sapiens, UniProt P41231). Put plainly: Calcium mobilization assay, P2Y2.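 Also: test compound added first then a maximal dose of the cognate agonist.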 The format is cell-based. On the set-up: key: no response (NR). Particulars: activation of P2Y2 receptor.
Data set [9] concerns platelet aggregation (platelet rich plasma). Kind of data set: Ex-vivo ADP-induced platelet aggregation after intravenous administration in mice. The procedure: In order to evaluate the effects of inhibition of platelet aggregation in-vivo by the compounds described in this invention, experimental protocols similar to those described by Leon et al. (Circulation 103:718-723, 2001) were performed.
Anesthetized mice were injected intravenously with either saline or with different doses of trans-2′,3′-cinnamyl acetal-6N-ethylurea adenosine 5′-monophosphate, bis sodium salt (Compound 41), usually between 1 and 100 μg/kg. Five minutes after the administration of the compound, 700 μL of blood were obtained from each animal. The blood of two animals was combined and immediately processed to obtain platelet rich plasma for the assessment of platelet aggregation stimulated by 1 and 5 μM ADP. Platelet aggregation was measured using optical aggregometry as described in Example 21.
A key characteristic of the compounds described in this invention is the reversible nature of the inhibition of platelet aggregation. The model system described in Example 28 was also used to study the kinetics of in-vivo inhibition of platelet aggregation with selected compounds. Briefly, a maximally effective concentration of test compound was administered intravenously, and blood samples were obtained before and at different times (usually 0, 1, 5, 15 and 30 minutes) after the administration of trans-2′,3′-cinnamyl acetal-6N-ethylurea adenosine 5′-monophosphate, bis sodium salt (Compound 41). Blood samples were processed immediately and aggregation induced by 1 μM and 5 μM ADP was estimated as described in Example 31.

The test system of data set [10] is platelets (ADP-induced aggregation). Put plainly: Inhibition of ADP-induced platelet aggregation at 100 μM (FIG. 1). It is filed as cell-based, human. Particulars: 100 μM compound. The procedure:
Blood was collected from healthy volunteers into syringes containing ⅙ final blood volume of anti-coagulant ACD (65 mM citric acid, 85 mM sodium citrate, 110 mM dextrose) for washed platelet (WP) preparation or into a syringe containing a final concentration of 10 units/mL heparin or 300 μM PPACK for whole blood (WB) assays. The blood collected for whole blood assays was maintained at room temperature and immediately tested as described below. The blood collected for WP was centrifuged at 180 g for 15 minutes and the supernatant (platelet rich plasma) was removed. The platelet rich plasma was centrifuged and the platelets were pelleted and resuspended in a buffer consisting of (mM): NaCl (137), KCl (2.7), CaCl2 (2) MgCl2 (1), NaH2PO4 (3), Glucose (5), HEPES (10), pH 7.4, 0.2% BSA. These centrifugations and washes were repeated twice following by resuspension in the media described above containing 0.25 U apyrase/mL. Platelet aggregation was measured using the optical mode of a CHRONOLOG® aggregometer (Havertown, Pa.). Five hundred μl of platelet suspension containing 1 mg/mL Fibrinogen were warmed to 37° C. and stirred at 1000 rpm. Indicated concentrations of ADP were added to the sample and aggregation was monitored for 8 minutes. The effect of the compounds described in this invention were studied following the same protocol with the exception that the inhibitor was incubated for 2-5 minutes prior to the addition of a maximally effective concentration of ADP. For whole blood aggregation, blood was diluted 1:1 with saline and then aggregation was performed in the same manner as described above using the impedance mode of the aggregometer. The potency of agonists and inhibitors of platelet aggregation was calculated from both, the rate of aggregation and the maximal extent of aggregation obtained for each determination by fitting the data to a four-parameter logistic equation using the […]® software package (GraphPad Corp. San Diego, Calif.).
The ability of P2Y12 antagonists to inhibit platelet aggregation is presented in this application as the percent inhibition of the aggregation induced by a maximally effective concentration of ADP. When a broad range of concentrations of P2Y12 antagonist was tested (usually from 1 nM to 100 μM), an IC50 value was also obtained.
Different compounds were tested for their inhibition of ADP-induced aggregation and their IC50 according to the protocols in Example 19; the results are shown in FIG. 1. The bar graphs in the figure illustrate the effect of 100 μM concentration of the compound on ADP-induced platelet aggregation, and the data are expressed as % inhibition of the ADP response.
Where hydrogens are understood to be present, they have been omitted for the sake of simplicity. […]

P2Y1, sequence (P47900 whole entry): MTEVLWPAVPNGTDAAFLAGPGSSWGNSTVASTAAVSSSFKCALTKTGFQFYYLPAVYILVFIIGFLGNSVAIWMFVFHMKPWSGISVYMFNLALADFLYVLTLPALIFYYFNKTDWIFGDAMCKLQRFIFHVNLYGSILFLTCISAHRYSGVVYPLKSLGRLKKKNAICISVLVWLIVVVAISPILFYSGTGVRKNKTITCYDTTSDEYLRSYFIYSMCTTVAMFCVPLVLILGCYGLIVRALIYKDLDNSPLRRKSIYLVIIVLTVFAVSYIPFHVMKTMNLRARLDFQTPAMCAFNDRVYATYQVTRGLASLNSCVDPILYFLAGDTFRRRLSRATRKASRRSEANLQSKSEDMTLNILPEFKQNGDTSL
P2Y2, sequence (P41231 whole entry, species assumed): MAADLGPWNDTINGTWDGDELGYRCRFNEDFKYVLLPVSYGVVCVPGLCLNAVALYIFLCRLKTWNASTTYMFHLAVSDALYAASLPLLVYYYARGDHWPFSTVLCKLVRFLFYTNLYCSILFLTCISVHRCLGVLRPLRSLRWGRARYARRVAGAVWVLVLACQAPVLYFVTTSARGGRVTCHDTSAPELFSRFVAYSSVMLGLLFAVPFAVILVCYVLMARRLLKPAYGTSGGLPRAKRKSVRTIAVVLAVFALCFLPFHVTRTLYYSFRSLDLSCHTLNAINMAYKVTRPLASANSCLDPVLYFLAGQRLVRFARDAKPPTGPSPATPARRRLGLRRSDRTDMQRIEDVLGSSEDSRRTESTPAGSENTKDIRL

For orientation: half-life means how long it takes for the measured level to halve. As a reminder, the IC50 is the concentration needed to halve the response being measured. Turning to `CCNC(=O)Nc1ncnc2c1ncn2[C@@H]1O[C@H](COP(=O)(O)O)C2O[C@H](/C=C/c3ccccc3)OC21` (stereo in doubt) [Compound 41, Phosphoric acid mono-{6-[6-(3-ethyl-ureido)-purin-9-yl]-2-styryl-tetrahydro-furo[3,4-d][1,3]dioxol-4-ylmethyl} ester bis sodium salt], the half-life in data set [1] is ~7 min. Besides, the “Calcium Mobilization P2Y6” value in data set [2] was “NR”. Moreover, in data set [3] (after end of IV infusion, FIG. 5A), the “restoration of platelet aggregation following termination of infusion” value is recorded as “nearly complete restoration of platelet aggregation within an hour”. Moreover, in [3] (continuous IV infusion, FIG. 5A (0.3 mg/kg/h)), the “time at which the pharmacodynamic effect reached steady state” value was ≤ 30 min. For the same compound, in [3] (continuous intravenous infusion), the “infusion rate giving the maximal inhibitory effect on platelet aggregation” value is 0.3 mg/kg/h. The “inhibition of platelet aggregation, dose dependence” value is given as “dose-dependent inhibition” in [3] (continuous intravenous infusion for 90 minutes); “dose-dependent inhibition” in data set [9] (intravenous, blood taken five minutes after administration, 1 and 5 μM ADP). Besides, the “Calcium Mobilization P2Y4” value in [4] is on record as “NR”. In addition, the “Calcium Mobilization P2Y1” value in data set [5] is “NR”. The compound further returned an IC50 in [6] of 13 ± 2 nM. Also, in data set [7], the “mortality resulting from systemic intravascular thromboembolism” value stood at 20%. Moreover, the “Calcium Mobilization P2Y2” value in data set [8] is “NR”. Besides, the “inhibition of ADP-induced platelet aggregation five minutes after administration” value in [9] (intravenous maximally effective concentration, 1 μM and 5 μM ADP, 5 minutes) is listed as “Complete inhibition”. Besides, the “aggregation response to ADP by 30 minutes after administration” value in data set [9] (intravenous maximally effective concentration, 1 μM and 5 μM ADP, 30 minutes) is recorded as “returned to values similar to those observed in control animals”.

Take `CCNC(=O)Nc1ncnc2c1ncn2[C@@H]1O[C@H](COP(=O)(O)OP(=O)(O)OC[C@H]2O[C@@H](n3cnc4c(NC(=O)NCC)ncnc43)[C@H]3OC(c4ccccc4)OC23)C2OC(c3ccccc3)OC21` (some centres unmarked) [Compound 47, P^1, P^4-Di-(2′,3′-phenylacetal-6-N-ethylureaadenosine 5′-) diphosphate]: the “Calcium Mobilization P2Y6” value in [2] is “NR”. Moreover, the “Calcium Mobilization P2Y4” value in data set [4] is listed as “NR”. Moreover, the “Calcium Mobilization P2Y1” value in data set [5] was “NR”. Besides, the IC50 in data set [6] turned out to be 55 nM. In addition, the “Calcium Mobilization P2Y2” value in data set [8] is “NR”.

Regarding `Nc1ccn([C@@H]2O[C@H](COP(=O)(O)OP(=O)(O)OP(=O)(O)OP(=O)(O)OC[C@H]3O[C@@H](n4ccc(=O)[nH]c4=O)[C@H](O)[C@@H]3O)[C@@H](O)[C@H]2O)c(=O)n1` [Cp4U, P^1-(cytidine 5′-)-P^4-(uridine 5′-) tetraphosphate], in data set [10], the “inhibition of ADP-induced aggregation” value is on record as “do not inhibit”.

On to `O=c1ccn([C@@H]2O[C@H](COP(=O)(O)OP(=O)(O)OP(=O)(O)OP(=O)(O)OC[C@H]3O[C@@H](n4cnc5c(=O)[nH]cnc54)[C@H](O)[C@@H]3O)[C@@H](O)[C@H]2O)c(=O)[nH]1` [Ip4U], for which the “inhibition of ADP-induced aggregation” value in data set [10] is “do not inhibit”.

In the case of `O=c1ccn([C@@H]2O[C@H](COP(=O)(O)OP(=O)(O)OP(=O)(O)OC[C@@H]3O[C@@H](n4ccc(=O)[nH]c4=O)C(O)[C@@H]3O)[C@H](O)C2O)c(=O)[nH]1` (some centres unmarked) [Up3U, P^1,P^3-Di(uridine 5′-) triphosphate], the “inhibition of ADP-induced aggregation” value in [10] is “do not inhibit”.

Take `O=c1ccn([C@@H]2O[C@H](COP(=O)(O)OP(=O)(O)OP(=O)(O)OP(=O)(O)OC[C@H]3O[C@@H](n4ccc(=O)[nH]c4=O)[C@H](O)[C@@H]3O)[C@@H](O)[C@H]2O)c(=O)[nH]1` [Up4U]: in [10], the “inhibition of ADP-induced aggregation” value is reported as “do not inhibit”.
